Values quoted from earlier work in article PMC9669016, “First-in-human phase Ia study of the PI3Kα inhibitor CYH33 in patients with solid tumors” (Nature Communications, 2022).

Experiments:
[1] = parameters: method as in Study Protocol CYH33-101 Table 2; conditions: ref Study Protocol CYH33-101 Table 2; cited from earlier work
CYP2C9 = system: CYP2C9; parameters: method as in Investigator's Brochure (IB) 12; conditions: up to 100 µM; ref Investigator's Brochure (IB) 12; cited from earlier work

Which results are given for COC(=O)Nc1cc(C(F)(F)F)c(-c2nc(N3CCOCC3)c3cc(CN4CCN(S(C)(=O)=O)CC4)cn3n2)cn1 [CYH33, methyl (5-(6-((4-(methylsulfonyl)piperazin-1-yl)methyl)−4-morpholinopyrrolo[2,1-f][1,2,4]triazin-2-yl)−4-(trifluoromethyl)pyridin-2-yl)carbamate]?
log P [1]: 2.89; inhibition of CYP2C9 (CYP2C9): did not inhibit
